Our source for the EC50 values is patent US11518760B2 (Liverpool School of Tropical Medicine, priority 2017, dated 2022).

For the experiment, the system named is C6/36 Aedes albopictus cell line infected with Wolbachia pipientis (Wolbachia strain wAlbB). The experiment in a line: In vitro insect cell line assay (anti-Wolbachia screen, SYTO 11 high content imaging). Format: cell-based. The settings on record: 168 h; C6/36 Aedes albopictus cells infected with Wolbachia pipientis wAlbB, 7 days incubation, SYTO 11 imaging; read-out: In vitro anti-Wolbachia activity. How it is done:
A C6/36 Aedes albopictus cell line infected with Wolbachia pipientis (Wolbachia strain wAlbB) derived from Aa23 A. albopictus cell line (O'Neill et al., 1997; Insect Mol Biol; Turner et al., (2006) J. Immunol. 7:1240-1249) was used to screen compounds. Cells were cultured in Leibovitz's L15+L-glutamine supplemented with heat-inactivated Foetal Calf Serum (HI-FCS), non-essential amino acids and tryptose phosphate broth. Culture medium was filter-sterilized through a 0.2 μm filter and stored at 4° C. Compounds were provided as 10 mM stocks in DMSO, diluted to 50 μM working stock to give final concentration of 5 μM on the test plate. Concentrated stocks were frozen at −20° C.
Prior to use in the screening assay, cell cultures were sub-passaged (6 days prior) to provide ˜90% confluent cells on Day 0 of screening assay. On Day 0 (assay set-up), the medium was removed from the stock culture flask and replaced with fresh medium. The cells were detached by scraping and cell density was calculated using an automated cell counter. The cells were then diluted at working density and aliquoted at 90 μl to each well of a Cell Carrier 384 well plate (Perkin Elmer). Cell plates were incubated at 26° C.
Control solution (DMSO-medium) was dispensed at 10 μl per well for “untreated” wells. Test solution (Drug-DMSO) was also dispensed at 10 μl (from working plate) per well for “treated” wells. The plates were incubated at 26° C., inside plastic wallet in incubator, for 7 days.
On Day 7, 25 μl of staining medium/dye (SYTO 11, Life Technologies) was added to each sample well and allowed to stain for 15 minutes in the dark. All the medium was removed from each sample well without disturbing the cells and replaced with 100 μl of fresh medium. Plates were imaged on the Operetta High Content Imaging system (Perkin Elmer) and analyzed using texture analysis through Harmony software (Perkin Elmer). The cell-based screen and analysis are described in detail in Clare et al. (2014) J Biomol Screen.

Each structure is given as a SMILES string.

Take `FC(F)(F)c1ccccc1CNc1nc(CN2CCC(Cl)CC2)nc2ncccc12` [Example 222]: the EC50 is 1000 to 100000 nM.
As for `CN(Cc1ccccc1C(F)(F)F)c1nc(Cl)nc2ccsc12` [Example 49, 2-chloro-N-methyl-N-(2-(trifluoromethyl)benzyl)thieno[3,2-d]pyrimidin-4-amine], the figure is 1 to 10 nM.
For `CC(Nc1ncnc2cc(C3CC3)sc12)c1ccccc1C(F)(F)F` (stereo not shown) [Example 99, 6-cyclopropyl-N-(1-(2-(trifluoromethyl)phenyl)ethyl)thieno[3,2-d]pyrimidin-4-amine] the value was 1000 to 100000 nM; for `CC(C)Nc1nc(NCc2ccc(C#N)cc2)c2sccc2n1` [Example 116, N^4-(4-cyanobenzyl)-N^2-isopropylthieno[3,2-d]pyrimidine-2,4-diamine], 100 to 1000 nM; for `N#Cc1nc(NCc2ccccc2C(F)(F)F)c2sccc2n1` [Example 80], 10 to 100 nM.
For `CC1(C)CCN1c1nc(NCc2cccnc2C(F)(F)F)c2cccnc2n1` [Example 173, 2-(2,2-dimethylazetidin-1-yl)-N-((2-(trifluoromethyl)pyridin-3-yl)methyl)pyrido[2,3-d]pyrimidin-4-amine] the value was 1 to 10 nM.
Consider `CC1COCCN1c1nc(N2CCC2c2cccnc2C(F)(F)F)c2cccnc2n1` (stereo not shown) [Example 219, 3-methyl-4-(4-(2-(2-(trifluoromethyl)pyridin-3-yl)azetidin-1-yl)pyrido[2,3-d]pyrimidin-2-yl)morpholine], for which the EC50 lay in the range of 1 to 10 nM.
For `CC(C)Nc1nc(N2CCC2c2ccccc2C(F)(F)F)c2cccnc2n1` (stereo not shown) [Example 183, N-isopropyl-4-(2-(2-(trifluoromethyl)phenyl)azetidin-1-yl)pyrido[2,3-d]pyrimidin-2-amine] the value was 1 to 10 nM; for `CC(C)Nc1nc(NCc2ccc(C(F)(F)F)nc2)c2ccccc2n1` [Example 114, N^2-isopropyl-N^4-((6-(trifluoromethyl)pyridin-3-yl)methyl)quinazoline-2,4-diamine], 100 to 1000 nM.
For `CC1(C#N)CCN(c2nc(NCc3cccnc3C(F)(F)F)c3cccnc3n2)CC1` [Example 250, 4-methyl-1-(4-(((2-(trifluoromethyl)pyridin-3-yl)methyl)amino)pyrido[2,3-d]pyrimidin-2-yl)piperidine-4-carbonitrile] the value was 0.01 to 1 nM; for `Clc1nc(NC2(c3ccccc3Cl)CC2)c2sccc2n1` [Example 47, 2-chloro-N-(1-(2-chlorophenyl)cyclopropyl)thieno[3,2-d]pyrimidine-4-diamine], 1000 to 100000 nM.
Take `CC(C)Nc1nc(NCc2ccc(C(F)(F)F)nc2)c2cccnc2n1` [Example 130, N^2-isopropyl-N^4-((6-(trifluoromethyl)pyridin-3-yl)methyl)pyrido[2,3-d]pyrimidine-2,4-diamine]: the EC50 lay in the range of 1000 to 100000 nM.
For `Cc1nc(N(C)C(C)c2ccccc2C(F)(F)F)c2sc(C=O)cc2n1` (stereo not shown) [Example 77] the value was 100 to 1000 nM.
For the compound `COc1ccc(CNc2nc(NC(C)C)nc3ccsc23)cc1` [Example 131, N^2-isopropyl-N^4-(4-methoxybenzyl)thieno[3,2-d]pyrimidine-2,4-diamine], the EC50 was 1000 to 100000 nM.
For `FC1(F)CCN(c2nc(N3CCC3c3ccccc3C(F)(F)F)c3cccnc3n2)C1` (stereo not shown) [Example 215, 2-(3,3-difluoropyrrolidin-1-yl)-4-(2-(2-(trifluoromethyl)phenyl)azetidin-1-yl)pyrido(2,3-d]pyrimidine] the value was 10 to 100 nM; for `C[C@H]1COCCN1c1nc(NCc2cccnc2C(F)(F)F)c2cccnc2n1` [Example 210, (S)-2-(3-methylmorpholino)-N-((2-(trifluoromethyl)pyridin-3-yl)methyl)pyrido[2,3-d]pyrimidin-4-amine], 1 to 10 nM; for `FC(F)C1CN(c2nc(NCc3cccnc3C(F)(F)F)c3cccnc3n2)C1` [Example 274, 2-(3-(difluoromethyl)azetidin-1-yl)-N-((2-(trifluoromethyl)pyridin-3-yl)methyl)pyrido[2,3-d]pyrimidin-4-amine], 1 to 10 nM.
For `COc1cccc(CNc2nc(NC(C)C)nc3ccsc23)c1` [Example 16, N^2-isopropyl-N^4-(3-methoxybenzyl)thieno[3,2-d]pyrimidine-2,4-diamine] the value was 1000 to 100000 nM; for `CC(C)Nc1nc(NCc2ccc(C#N)cc2)c2ncccc2n1` [Example 121, N^4-(4-cyanobenzyl)-N^2-isopropylpyrido[3,2-d]pyrimidine-2,4-diamine], 1000 to 100000 nM.
As for `FC(F)(F)c1ccccc1C1CCN1c1nc(N2CC(C(F)(F)F)C2)nc2ncccc12` (stereo not shown) [Example 216, 2-(3-(trifluoromethyl)azetidin-1-yl)-4-(2-(2-(trifluoromethyl)phenyl)azetidin-1-yl)pyrido[2,3-d]pyrimidine], the figure is 100 to 1000 nM; as for `N#CC1CN(c2nc(NCc3ccccc3C(F)(F)F)c3cccnc3n2)CCO1` (stereo not shown) [Example 283, 4-(4-((2-(trifluoromethyl)benzyl)amino)pyrido[2,3-d]pyrimidin-2-yl)morpholine-2-carbonitrile], 0.01 to 1 nM.
`CC(C)Nc1nc(NCc2ccc(S(C)(=O)=O)cc2)c2cccnc2n1` [Example 128, N^2-isopropyl-N^4-(4-(methylsulfonyl)benzyl)pyrido[2,3-d]pyrimidine-2,4-diamine]: the EC50 was in the range of 100 to 1000 nM.
As for `CC(=O)c1nc(NCc2ccccc2C(F)(F)F)c2sccc2n1` [Example 87], the figure is 100 to 1000 nM; as for `CC(C)Nc1nc(NCc2ccccc2Cl)c2ccccc2n1` [Example 137, N^4-(2-chlorobenzyl)-N^2-isopropylquinazoline-2,4-diamine], 1000 to 100000 nM; as for `FC(F)(F)c1ccccc1CNc1nc(NC2CC2)nc2ncccc12` [Example 156, N^2-cyclopropyl-N^4-(2-(trifluoromethyl)benzyl)pyrido[2,3-d]pyrimidine-2,4-diamine], 1 to 10 nM.
For `CC(C)Nc1nc(NCc2ccccc2F)c2ccccc2n1` [Example 135, N^4-(2-fluorobenzyl)-N^2-isopropylquinazoline-2,4-diamine] the value was 1000 to 100000 nM.
For `FC(F)(F)c1ncccc1CNc1ncnc2ncccc12` [Example 170, N-((2-(trifluoromethyl)pyridin-3-yl)methyl)pyrido[2,3-d]pyrimidin-4-amine] the value was 1000 to 100000 nM; for `FC(F)(F)c1ccc(CNc2nc(Cl)nc3ccccc23)cn1` [Example 115], 1000 to 100000 nM.
With `CNc1nc(NCc2cccnc2C(F)(F)F)c2cccnc2n1` [Example 149, N^2-methyl-N^4-((2-(trifluoromethyl)pyridin-3-yl)methyl)pyrido[2,3-d]pyrimidine-2,4-diamine], the EC50 was 100 to 1000 nM.
For `CC(C)Nc1nc(NCc2cccnc2C(F)(F)F)c2ncccc2n1` [Example 152, N^2-isopropyl-N^4-((2-(trifluoromethyl)pyridin-3-yl)methyl)pyrido[3,2-d]pyrimidine-2,4-diamine] the value was 100 to 1000 nM.
As for `FC(F)(F)c1ncccc1CNc1nc(N2CC(C(F)(F)F)C2)nc2ncccc12` [Example 202, 2-(3-(trifluoromethyl)azetidin-1-yl)-N-((2-(trifluoromethyl)pyridin-3-yl)methyl)pyrido[2,3-d]pyrimidin-4-amine], the figure is 1 to 10 nM.
